In patent publication US10538561B2, “Peptide for treating inflammatory diseases” (priority 2015, dated 2020):
Read-outs that look alike come from different tables or passages of the source.

Experiments:
Caspase-3 enzyme = test: Caspase-3 assay; type: cell-based, Human; conditions: HaCaT, 0.1 μM
Description: Cell lines: Human Keratinocytes (HaCaT); Test Item (TI): IS 181; Treatment regimen: Multiple additions (2)—48 hours; Concentration range: 100 μg/ml to 5000 μg/ml (Duplicate wells); Sera Condition: Medium containing 1% FBS. […] Cells were lysed and protein was estimated. The above lysates were processed further for Caspase-3 enzyme activity assay using colorimetric based method. Percentage induction of Caspase-3 enzyme activation with respect to untreated; Positive control: Anthralin. IS 181 led to induction of Caspase-3 enzyme activation in HaCaT cells at all the concentrations tested except at 100 μg/ml. […] (FIGS. 7A-7B)

[1] = system: Human Keratinocytes (HaCaT); test: DNA fragmentation assay in HaCaT; type: cell-based
Description: Cells were lysed and fragmented DNA was precipitated using PEG/NaCl solution. The fragmented DNA was incubated with 0.2 μg/ml of Hoechst 33258 dye and fluorescence was read at 360 ex/460 em. End point: Percentage induction of DNA fragmentation with respect to untreated Positive control. Anthralin. IS 181 led to induction of DNA fragmentation in HaCaT cells at all the concentrations tested except at 100 μg/ml. […] The overall effect of IS 181 on induction of DNA fragmentation with respect to untreated in HaCaT cells ranged from −18.8% to 83.3%. (FIG. 8 and Table-6).

[2] = system: Human endothelial cells (EA.hy 926); test: Inhibition of FBS stimulated endothelial cell proliferation (MTT); type: cell-based
Description: Cell line: Human endothelial cells (EA.hy 926); test item: IS 181: treatment regimen: multiple additions (3)-72 hours; concentration range: 1 6 g/ml to 5000 6 g/ml (triplicate wells); sera condition: medium containing 10% FBS. […] The cells were then subjected to complete serum starvation. The cells were retreated with 10% FBS to stimulate cellular proliferation. […] Inhibition of FBS stimulated cell proliferation was measured using MTT assay. End point: percentage inhibition of FBS stimulated cell proliferation. Positive controls: anthralin; paclitaxel.

[3] = system: Human endothelial cells (EA.hy 926); test: DNA fragmentation in endothelial cells; type: cell-based
Description: Cell lines: Human endothelial cells (EA.Hy 926); test item: IS 181; treatment regimen: multiple additions (2)—48 hours; concentration range: 100 μg/ml to 5000 μg/ml (Duplicate wells); sera condition: medium containing 1% FBS. […] Cells were lysed and fragmented DNA was precipitated using PEG/NaCl solution. The fragmented DNA was incubated with 0.2 μg/ml of Hoechst 33258 dye and fluorescence was read at 360 ex/460 em. End point: Percentage induction of DNA fragmentation with respect to untreated. Positive control: anthralin. IS 181 led to induction of DNA fragmentation in Ea.hy.926 cells at all the concentrations tested. […] The overall effect of IS 181 on induction of DNA fragmentation with respect to untreated in Ea.hy.926 cells ranged from 15.09% to 64.15% (FIGS. 10A-10B and Table-10).

[4] = In vitro combination Anthralin and IS 181 (MTT); type: cell-based, Human; conditions: human, HaCaT keratinocytes, read-out: percent inhibition of cell viability/cytotoxicity
Description: (§1) Percentage cytotoxicity was determined using MTT assay.

[5] = system: Human Keratinocytes (HaCaT); test: In vitro combination Anthralin and IS 181 (MTT); type: cell-based; conditions: Homo sapiens, 72 h, read-out: IC 50 value of Anthralin
Description: as §1

For `O=C1c2c(O)cccc2Cc2cccc(O)c21` [Anthralin, reference compound], the “Percentage induction of caspase-3 enzyme activation with respect to untreated” value (Caspase-3 enzyme) was 101.85, the “% induction of DNA fragmentation” value ([1]; 0.1 μM) was 60.42% and the “% induction of DNA fragmentation” value ([1]; 0.5 μM) was 168.75%. The “Absorbance (Mean ± SD) at 540 nm” value ([2]; EA.hy926, 0.01 μM) was 0.46 ± 0.025, the “Absorbance (Mean ± SD) at 540 nm” value ([2]; EA.hy926, 0.1 μM) was 0.45 ± 0.018 and the “Absorbance (Mean ± SD) at 540 nm” value ([2]; EA.hy926, 0.5 μM) was 0.42 ± 0.013. For the same compound, the inhibition at 0.01 µM ([2]; Homo sapiens, EA.hy 926, EA.hy926, 0.01 μM, read-out: ¾ Inhibition of FBS stimulated cell growth) was 7.21%, the inhibition at 0.1 µM ([2]; Homo sapiens, EA.hy 926, EA.hy926, 0.1 μM, read-out: ¾ Inhibition of FBS stimulated cell growth) was 14.6% and the inhibition at 0.5 µM ([2]; Homo sapiens, EA.hy 926, EA.hy926, 0.5 μM, read-out: ¾ Inhibition of FBS stimulated cell growth) was 20.4%. The “% induction of DNA fragmentation” value ([3]; EA.hy926, 0.1 μM) was 3.77%, the “% induction of DNA fragmentation” value ([3]; EA.hy926, 0.5 μM) was 13.21% and the cytotoxicity at 72 h, 0.01 µM ([4]; Anthralin 0.01 μM alone) was 0.75%. It also gave a cytotoxicity at 72 h, 0.05 µM ([4]; Anthralin 0.05 μM alone) of -2.45%, a cytotoxicity at 72 h, 0.1 µM ([4]; Anthralin 0.1 μM alone) of 9.41% and a cytotoxicity at 72 h, 0.5 µM ([4]; Anthralin 0.5 μM alone) of 41.3%. The cytotoxicity at 72 h, 1 µM ([4]; Anthralin 1 μM alone) was 78.9%, the cytotoxicity at 72 h, 5 µM ([4]; Anthralin 5 μM alone) was 87.9% and the IC50 ([5]; IS 181 0 μg/ml) was 558 nM. The IC50 ([5]; with IS 181 10 μg/ml) was 628 nM, the IC50 ([5]; with IS 181 50 μg/ml) was 584 nM and the IC50 ([5]; with IS 181 100 μg/ml) was 522 nM. For the same compound, the IC50 ([5]; with IS 181 500 μg/ml) was 97.3 nM, the IC50 ([5]; with IS 181 1000 μg/ml) was 27.1 nM and the IC50 ([5]; with IS 181 2000 μg/ml) was 0.1 nM.
